{"source": "patent US8883763B2", "about": "(Universite Joseph Fourier, priority 2010, dated 2014)", "key": {"PP1α (PP1CA)": {"target": "T1, PP1α (PP1CA) (Oryctolagus cuniculus, UniProt P62139)", "T1 construct": "purchased New England Biolabs P0754", "T1 sequence (P62139 whole entry)": "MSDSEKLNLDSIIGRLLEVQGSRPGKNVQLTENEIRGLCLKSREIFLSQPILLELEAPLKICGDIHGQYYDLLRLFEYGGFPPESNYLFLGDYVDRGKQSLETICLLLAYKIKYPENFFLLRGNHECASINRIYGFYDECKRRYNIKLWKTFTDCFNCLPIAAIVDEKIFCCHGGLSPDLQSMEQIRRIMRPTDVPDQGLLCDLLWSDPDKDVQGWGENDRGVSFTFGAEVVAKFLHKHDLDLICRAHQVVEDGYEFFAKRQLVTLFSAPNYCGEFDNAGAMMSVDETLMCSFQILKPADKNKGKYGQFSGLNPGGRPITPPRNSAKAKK", "assay": "Protein phosphatase test (PP1 activity, DiFMUP fluorescent substrate)", "format": "biochemical", "conditions": "PP1CA at 80 mU, fluorescent substrate (50 μM), molecules from 50 μM to 50 nM; read-out: PP1 Inhibition IC50", "summary_of_the_method": "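PP1α (30 or 80 mU) in 100 mM Tris-HCl pH 7.5, 4 mM DTT, 0.2 mM EDTA, 0.5 mM MnCl2 was preincubated 15 min with compound (50 μM to 50 nM), then given 60 μM DiFMUP for 20 min at 37 °C. Phosphatase activity was read as fluorescence at 355-460 nm, three times in duplicate.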"}, "HeLa cells": {"tested_on": "HeLa cells", "assay": "Phase contrast video microscopy of HeLa cells (mitosis duration, blebbing)", "format": "cell-based, human", "conditions": "0.5 μM", "procedure": "The cells were filmed over 48 hours (image acquisition every 5 minutes) with a Neofluar 40× objective (Zeiss).\nThe values of FIG. 10A are averages±SEM of two experiments in which 50 mitotic cells were monitored.\nFor z-series video microscopy, HeLa cells were cultured in glass-bottomed dishes (Iwaki, Milian # BY-3910035). The system comprises: an AXIOVERT 200M inverted microscope (Zeiss®), a thermostated incubation chamber which maintains a temperature of 37° C. and a constant CO2 level of 5%, a motorized platform and a CoolSNAP HQ camera (Roper Scientifics®) coupled with the Metamorph acquisition and analysis system (Universal Imaging™ Corporation). The studies were carried out with ×20 or ×40 objectives (Neofluar Zeiss).\nInitially, the acquisition fields were chosen and stored in the memory, then the acquisition parameters were defined, such as the duration of the experiment (48 hours), the interval between the image captures (5 minutes), or the number of sections at depth z (9 sections). At the end of 48 hours of recording, the acquisition batteries were reconstituted with the image at z having the same focus, using the Metamorph software."}, "[1]": {"tested_on": "primary human fibroblasts", "assay": "Indirect immunofluorescence on primary human fibroblasts", "format": "cell-based", "conditions": "5 and 10 μM for 24 hours", "procedure": "Primary human fibroblasts (PHFs) were prepared from newborn foreskins as described in (Nahm W K et al., J Dermatol Sci. 2002, 28(2): pp 152-8).\nThe cells were cultured on slides in 24-well plates and incubated for 24 hours with molecule 6 at different concentrations from 1 to 10 μM.\nCorresponding quantities of DMSO were added to the culture medium in the control wells.\nThe cells were fixed in a solution of PBS with 4% paraformaldehyde (PFA) and 0.1% glutaraldehyde (GA), for 15 minutes and centrifuged at 300 g for the last 10 minutes of the fixing. The slides were rinsed in PBS and the free aldehyde groups were reduced by two successive 5-minute incubations in PBS containing 1 mg/ml of NaBH4.\nAfter one washing with PBS then another with PBST (PBS with 0.5% triton-X-100), the cells are incubated for 30 minutes at ambient temperature with anti α-tubulin monoclonal antibody solution (DM1A clone, Sigma # T6199) diluted to 1:200 in PBST. […] After 3 10-minute washings in PBST, the slides are mounted on plates in Fluorsave™ mounting medium (Calbiochem #345789) and are observed and analyzed using an Axiovert 200M inverted fluorescence microscope (Zeiss®). […]"}, "[2]": {"tested_on": "human tumours (HTB-177: pulmonary carcinoma) xenografted onto nude mice", "assay": "HTB-177 tumour xenograft in nude mice, necrosis and histology", "format": "in vivo", "procedure": "All the animal experiments were carried out according to the recommendations of the local ethics commmittee. Nude mice (NCr-nu/nu females (Harlan Laboratories), were housed in a room with filtered air at 22° C., alternating 12 hours of day and 12 hours of night.\nHTB177 cells (1×10^6) were implanted sub-cutaneously in the flanks of the mice. The tumour growth was monitored twice weekly by measuring the size of the tumours with a slide caliper, thus making it possible to estimate the volume of the tumour, calculated in mm^3 according to the following formula: length×width×height×π/6.\nTreatment commenced when the tumours reached a size of approximately 250 mm^3. The weight of the animal, the volume of the tumour and the extension of the necroses were measured twice weekly.\nThe animals were sacrificed when the tumour reached 2000 mm^3 or sooner if a clinical sign of suffering, defined by the ethics committee, was observed.\nThe mice received compound 6 per os in doses and at intervals described in the captions to the figures. The control mice received the vehicle alone (identical volume of beta-cyclodextrin at 60 mg/ml))\nAfter euthanasia of the animals, the tumours were removed, cut sagittally along the median line, frozen rapidly in nitrogen liquid and stored at −80° C. […]"}}}
{"smiles": "COc1ccc(-c2[nH]c(=O)c3cc(OC)ccc3c2[N+](=O)[O-])cc1", "note": "[Compound 6, 7-methoxy-3-(4-methoxyphenyl)-4-nitroisoquinoline-1(2H)-one]", "values": [{"measurement": "IC50", "setting": "PP1α (PP1CA)", "value": "≤ 9", "unit": "µM"}, {"measurement": "membrane phenotype of HeLa cells (interphase and mitosis), phase contrast", "setting": "HeLa cells; 3 hours", "value": "cortical blebbings"}, {"measurement": "mitotic arrest of HeLa cells, phase contrast over 24 hours", "setting": "HeLa cells; 24 hours", "value": "accumulation of rounded HeLa cells"}, {"measurement": "mitotic cells remaining rounded", "setting": "HeLa cells; HeLa cells in mitosis", "value": 20, "unit": "%"}, {"measurement": "mitotic cells showing intense blebbing", "setting": "HeLa cells; HeLa cells in mitosis", "value": 80, "unit": "%"}, {"measurement": "duration of the mitosis of HeLa cells", "setting": "HeLa cells; 1 hour under control conditions", "value": 22, "unit": "h"}, {"measurement": "phenotype on microtubules and actin cytoskeleton, primary human fibroblasts in interphase", "setting": "[1]", "value": "depolymerization of the microtubules and a reorganization of the actin cytoskeleton"}, {"measurement": "phenotype on microtubules and actin cytoskeleton, primary human fibroblasts in mitosis", "setting": "[1]", "value": "depolymerization of the spindle microtubules and the formation of ectopic furrows"}, {"measurement": "tumour necrosis (macroscopic)", "setting": "[2]; 40 mg/kg twice weekly per os, after one cycle of administration (day 7)", "value": "central necrosis"}, {"measurement": "necrosis on H&E-stained tumour sections", "setting": "[2]; 48 hours after administration of 40 mg/kg", "value": "extensive areas of necrosis"}]}
